Drawing on ChEMBL document CHEMBL2062519, “The β-Amyloid Hypothesis in Alzheimer's Disease: Seeing Is Believing” (ACS Med Chem Lett, 2012), this text covers Ki for one molecule.

The experiment deals with Amyloid-beta precursor protein (Homo sapiens, UniProt P05067). Put plainly: Binding affinity to human amyloid beta plaque.
Chain of Amyloid-beta precursor protein (P05067 whole entry): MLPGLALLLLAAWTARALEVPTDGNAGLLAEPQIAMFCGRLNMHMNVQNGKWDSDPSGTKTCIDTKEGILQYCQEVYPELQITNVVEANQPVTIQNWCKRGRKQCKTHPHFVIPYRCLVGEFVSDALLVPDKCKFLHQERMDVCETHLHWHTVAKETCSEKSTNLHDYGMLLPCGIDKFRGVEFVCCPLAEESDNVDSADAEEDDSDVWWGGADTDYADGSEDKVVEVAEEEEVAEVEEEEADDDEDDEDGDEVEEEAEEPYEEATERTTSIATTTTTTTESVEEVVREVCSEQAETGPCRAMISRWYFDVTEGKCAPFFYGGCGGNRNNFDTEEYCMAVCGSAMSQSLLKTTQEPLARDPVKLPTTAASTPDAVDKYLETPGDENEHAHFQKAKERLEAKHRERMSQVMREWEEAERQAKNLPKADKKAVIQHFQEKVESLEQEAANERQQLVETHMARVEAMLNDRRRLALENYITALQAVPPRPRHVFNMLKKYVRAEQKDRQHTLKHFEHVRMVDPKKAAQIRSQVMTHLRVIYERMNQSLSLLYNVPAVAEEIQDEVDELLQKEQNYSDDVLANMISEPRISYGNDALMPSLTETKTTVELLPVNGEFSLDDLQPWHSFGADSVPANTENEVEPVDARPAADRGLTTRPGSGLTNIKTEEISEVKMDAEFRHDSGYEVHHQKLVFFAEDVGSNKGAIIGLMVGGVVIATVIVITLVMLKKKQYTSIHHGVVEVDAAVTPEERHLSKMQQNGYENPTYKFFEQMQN

The molecule `CNc1ccc(-c2nc3ccc(O)cc3s2)cc1[18F]` [FLUTEMETAMOL F 18] gave a Ki of 0.7 nM.
